PMC9654711, “Neuroprotective Action of Coumarin Derivatives through Activation of TRKB-CREB-BDNF Pathway and Reduction of Caspase Activity in Neuronal Cells Expressing Pro-Aggregated Tau Protein” (International Journal of Molecular Sciences, 2022)

Assays:
[1] = target: T1, E. coli-expressed ΔK280 tauRD protein (Homo sapiens, UniProt P10636, DEL597-597); assay: Anti-ΔK280 tauRD aggregation assay (thioflavin T); type: biochemical; conditions: compounds tested 1–10 μM, 20 μM protein, 48 h, linear interpolation, read-out: EC50 for ΔK280 tauRD aggregation inhibition
T1 construct: assessed by using E. coli-expressed ΔK280 tauRD protein; made in house; host or cells: E. coli
Procedure: Thioflavin T is widely used to visualize and quantify the presence of misfolded amyloid protein aggregates in vitro [74]. The tau aggregation inhibiting potential of Congo red, LM-031 and LMDS-1 to -4 was assessed by using E. coli-expressed ΔK280 tauRD protein [28]. Briefly, purified ΔK280 tauRD protein (20 μM) was incubated with Congo red or coumarin compounds (1–10 μM) in 150 mM NaCl and 20 mM Tris-HCl pH8.0, at 37 °C with shaking for 48 h to form aggregates. Then, thioflavin T (final 5 μM; Acros Organics, Geel, Belgium) was added and incubated for 25 min at room temperature. Fluorescence intensity of samples was recorded at excitation/emission wavelengths of 420/485 nm using an FLx800 microplate reader (BioTek, Winooski, VT, USA). The half maximal effective concentration (EC50) values were calculated by using a linear interpolation method.

[2] = DPPH free radical-scavenging assay; conditions: compounds tested 10–80 μM; DPPH 100 µM; linear interpolation
Procedure: The potential free radical-scavenging activity of test compounds was assayed using stable free radical 1,1-diphenyl-2-picrylhydrazyl (DPPH) (Sigma-Aldrich). Briefly, kaempferol, LM-031 or LMDS-1 to -4 (10–80 µM) was added to DPPH (100 µM in 99% ethanol). The solution was vortexed for 15 s, left for 30 min at room temperature, the mixture was transferred to a 96-well UV-transparent microplate and the absorbance at 517 nm was measured using a Multiskan^TM GO microplate spectrophotometer (Thermo Fisher Scientific, Waltham, MA, USA). Radical-scavenging activity was calculated using the equation: 1 − (absorbance of sample/absorbance of control) × 100%, and EC50 estimated using the linear interpolation method.

[3] = High-content analysis of ΔK280 tauRD-DsRed fluorescence and cell number (folding reporter); type: cell-based, human; conditions: human; induced ΔK280 tauRD-DsRed SH-SY5Y; compounds 2.5–10 µM; read-out: IC50 cytotoxicity based on the cell number analyzed
Procedure: On day 1, ∆K280 tauRD-DsRed SH-SY5Y cells were seeded in a 96-well plate (3 × 10^4/well), with retinoic acid (10 µM; Sigma-Aldrich) added to induce neuronal differentiation. […] […] For ROS measurement, dichloro-dihydro-fluorescein diacetate (DCFH-DA, 10 µM; Invitrogen, Carlsbad, CA, USA) was added to the cells on day 8 and incubated at 37 °C for 30 min.

[4] = system: ΔK280 tauRD-DsRed SH-SY5Y cells; assay: High-content analysis of neurite outgrowth; type: cell-based, human; conditions: 10 µM; for Neurite branching: induced untreated 0.87, uninduced 0.99; for Neurite length: induced untreated 27.2 μm, uninduced 30.9 μm
Procedure: As described, ∆K280 tauRD-DsRed SH-SY5Y cells were seeded in a 24-well plate (5 × 10^4/well) with retinoic acid addition on day 1, treated with tested compounds (10 µM) and ∆K280 tauRD-DsRed expression was induced with doxycycline (2 μg/mL) on day 2. On day 8, after being fixed in 4% paraformaldehyde for 15 min, permeabilized in 0.1% Triton X-100 for 10 min and blocked in 3% bovine serum albumin (BSA) for 20 min, the cells were stained with TUBB3 (neuronal class III β-tubulin) primary antibody (1:1000; BioLegend, San Diego, CA, USA) at 4 °C overnight, followed by goat anti-rabbit Alexa Fluor® 555 secondary antibody (1:1000; Molecular probes) at room temperature for 2 h, with 4′-6-diamidino-2-phenylindole (DAPI, 0.1 µg/mL; Sigma-Aldrich) included for nuclei staining. Neuronal images were captured using the high-content analysis system as described. Neurite total length (μm), processes (primary neurite extensions projecting directly from the cell body) and branching (points at which primary neurites bifurcated) were analyzed using Neurite Outgrowth Application Module (MetaXpress; Molecular Devices). Around 5000 cells were analyzed in each of three independent experiments for each sample.

[5] = target: T2, TRKB-ECD-His (extracellular domain of TRKB) (Homo sapiens, UniProt Q16620); assay: Tryptophan fluorescence quenching assay; conditions: TRKB-ECD-His 50 nM in PBS; excitation 295 nm, emission 330 nm; compounds 0–1000 nM; read-out: TRKB-ECD binding affinity (KD)
T2 construct: extracellular domain of TRKB (TRKB-ECD) (residues 32–429, XP_016870240); Saccharomyces cerevisiae α-factor secretion signal (N, cleaved yes); made in house; host or cells: Pichia pastoris
Source text: The cDNA fragment containing the full-length extracellular domain of TRKB (TRKB-ECD) (residues 32–429, XP_016870240) was amplified from pDONR223-NTRK2 plasmid (Addgene, Watertown, MA, USA) using forward primer 5′-ctcgagaaaagagaggctgaagctTGTCCCACGTCCTGAAATG (XhoI site and Kex2 cleavage of the signal sequence in lowercase letters) and reverse primer 5′-gtcgac[…] (SalI site in lowercase letters). After cloning and sequencing, the TRKB-ECD fragment was excised with XhoI and SalI and subcloned into Pichia expression vector pGAPZα A (Invitrogen). The AvrII-linearized plasmid was then transformed into Pichia pastoris, and stable transformants selected and cultured at 30 °C for 4 days for constitutive expression of recombinant His-tagged TRKB-ECD. The secreted TRKB-ECD-His in cultured medium was purified using Ni-NTA His•Bind resins (Novagen, Madison, WI 53719, USA) according to the supplier’s instructions. Protein purity was examined by Coomassie blue staining of SDS-polyacrylamide gel as well as immunoblotting using anti-His (1:2000; Acris, Herford, Germany) and anti-TRKB (1:1000; Cell Signaling) antibodies.
The interaction between TRKB-ECD-His and LM-031, LMDS-1 or LMDS-2 was determined by tryptophan fluorescence titration. 7,8-DHF (Sigma-Aldrich) was included as a positive control. Tryptophan fluorescence spectra of TRKB-ECD-His (50 nM in PBS) were obtained before and after titration with different concentrations of test compounds (0–1000 nM). The fluorescent quenching was conducted in a cuvette with a 1 cm path length cell by an F-7000 fluorescence spectrophotometer (Hitachi, Tokyo, Japan) at room temperature. The intrinsic fluorescence spectra of TRKB were recorded with excitation wavelength set at 295 nm and emission wavelength in the range 300–400 nm. The dissociation constant (KD) of 7,8-DHF, LM-031, LMDS-1 and LMDS-2 to TRKB was determined by fitting the normalized fluorescence intensity at 330 nm under different concentrations of test compounds using the equation derived from Liu et al.:KD = [P]T (f − 1) + [D]T (1/f − 1), where f is the fractional change, and [P]Tand [D]Tare the total concentration of TRKB-ECD-His protein and test compound, respectively.

T1 sequence (P10636 with tags, fused parts or gaps DEL597-597): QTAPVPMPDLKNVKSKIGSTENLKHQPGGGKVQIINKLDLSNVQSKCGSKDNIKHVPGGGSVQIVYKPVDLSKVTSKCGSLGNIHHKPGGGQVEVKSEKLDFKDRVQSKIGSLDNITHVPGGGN
T2 sequence (Q16620 32-429): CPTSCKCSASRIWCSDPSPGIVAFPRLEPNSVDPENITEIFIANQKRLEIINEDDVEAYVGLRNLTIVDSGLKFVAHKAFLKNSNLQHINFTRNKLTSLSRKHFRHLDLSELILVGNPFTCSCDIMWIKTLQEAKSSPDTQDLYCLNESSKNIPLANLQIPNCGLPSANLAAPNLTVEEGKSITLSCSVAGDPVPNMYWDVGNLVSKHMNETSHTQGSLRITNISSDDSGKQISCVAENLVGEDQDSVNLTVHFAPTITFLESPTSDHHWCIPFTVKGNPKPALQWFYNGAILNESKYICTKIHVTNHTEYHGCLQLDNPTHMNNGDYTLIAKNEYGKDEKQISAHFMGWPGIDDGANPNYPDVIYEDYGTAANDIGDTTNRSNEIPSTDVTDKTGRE

SMILES | EC50 [1] [µM] | EC50 [2] [µM] | IC50 at 6 days [3] [µM] | Neurite branching [4] | Neurite length [4] | Kd [5] [µM]
O=C(c1ccccc1)c1cc2c(O)cccc2oc1=O [LM-031, 3-benzoyl-5-hydroxychromen-2-one] | 36 | 93 | 43 | 1.00–1.06 | 30.3–31.5 μm | 0.0127 ± 0.0028
O=C(c1ccccc1)c1cc2ccc(O)cc2oc1=O [LMDS-2] | 8 | 132 | 24 | 1.00–1.06 | 30.3–31.5 μm | 0.0065 ± 0.0066
CCOc1ccc2cc(C(=O)c3ccccc3)c(=O)oc2c1 [LMDS-1] | 84 | 122 | 25 | 1.00–1.06 | 30.3–31.5 μm | 0.008 ± 0.017
